Measured values from US20230172915A1, “DHODH INHIBITOR FOR THE TREATMENT OF COVID-19” (priority 2020, published 2023).

Experiments:
[1] = test system: Hepatitis C virus (replicon); experiment: Antiviral activity, Hepatitis C virus replicon (Huh7 cells); type: cell-based; settings: Huh-7
Ebola virus = experiment: microbe, parasite or virus in culture; type: cell-based; settings: Zaire ebolavirus, Vero, read-out: EC50 Ebola virus
[2] = test system: primary acute myeloid leukemia (AML) blast cells; experiment: Primary AML blast cell assay with and without uridine; type: cell-based; settings: uridine 0, 3, 10, 30, or 100 µM
Procedure: FIG. 5 is a plot showing the fraction of total blasts relative to DMSO control vs PTC299 concentration in nM, from an assay of the ability of PTC299 to suppress DHODH activity in the presence of increasing concentrations of uridine (0, 3, 10, 30, or 100 µM) .
The ability of PTC299 to inhibit DHODH was further tested using primary acute myeloid leukemia (AML) blast cells that are reliant upon the de novo pyrimidine nucleotide pathway to obtain pyrimidine nucleotides.

[3] = test system: Chinese hamster ovary cells
DHODH = experiment: Study PTC299-ONC-007-NF2: serum DHO and VEGF in neurofibromatosis type 2 patients; settings: 100 mg BID

In the case of `COc1ccc([C@H]2c3[nH]c4ccc(Cl)cc4c3CCN2C(=O)Oc2ccc(Cl)cc2)cc1` [PTC299, 4-chlorophenyl (S)-6-chloro-1-(4-methoxyphenyl)-1,3,4,9-tetrahydro-2H-pyrido[3,4-b]indole-2-carboxylate], the EC50 [1] is reported as 36 nM, the EC50 (Ebola virus) is reported as 9 nM and the “effect of exogenous uridine on PTC299-dependent cytotoxicity” value [2] is reported as “reversal of the effects of PTC299-dependent cytotoxicity by the addition of exogenous uridine”. The chromosomal aberration assay [3] was “negative”, the “serum VEGF levels” value (DHODH; 8 weeks versus pre-dose) was “significantly reduced after 8 weeks of treatment” and the “serum DHO levels” value (DHODH; post-dose versus pre-dose) was “elevated at 8 or 16 weeks”.
